From patent US10392368B2, “Pyrazolo and triazolo bicyclic compounds as JAK kinase inhibitors” (THERAVANCE BIOPHARMA R&D IP, LLC, priority 2017, dated 2019)

Legend:
JAK1 = target: T1, JAK1 (Homo sapiens, UniProt P23458); assay: Biochemical JAK1 kinase assay (LanthaScreen); conditions: for Ki: read-out: JAK 1 (pKi) (converted)
T1 construct: GST; purchased Life Technologies
How it was run: (§1)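 Values are pKi, calculated by Cheng-Prusoff from IC50 obtained by robust 4-parameter fitting of percent inhibition. The kinase reaction used GFP-STAT1 peptide in HEPES pH 7.5 buffer with MgCl2, EGTA and Brij-35, ATP-initiated after compound pre-incubation, 1 h at ambient temperature.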

JAK2 = target: T2, JAK2 (Homo sapiens, UniProt O60674); assay: Biochemical JAK2 kinase assay (LanthaScreen); conditions: for Ki: read-out: JAK 2 (pKi) (converted)
T2 construct: GST; purchased Life Technologies
T2 sequence (O60674 whole entry): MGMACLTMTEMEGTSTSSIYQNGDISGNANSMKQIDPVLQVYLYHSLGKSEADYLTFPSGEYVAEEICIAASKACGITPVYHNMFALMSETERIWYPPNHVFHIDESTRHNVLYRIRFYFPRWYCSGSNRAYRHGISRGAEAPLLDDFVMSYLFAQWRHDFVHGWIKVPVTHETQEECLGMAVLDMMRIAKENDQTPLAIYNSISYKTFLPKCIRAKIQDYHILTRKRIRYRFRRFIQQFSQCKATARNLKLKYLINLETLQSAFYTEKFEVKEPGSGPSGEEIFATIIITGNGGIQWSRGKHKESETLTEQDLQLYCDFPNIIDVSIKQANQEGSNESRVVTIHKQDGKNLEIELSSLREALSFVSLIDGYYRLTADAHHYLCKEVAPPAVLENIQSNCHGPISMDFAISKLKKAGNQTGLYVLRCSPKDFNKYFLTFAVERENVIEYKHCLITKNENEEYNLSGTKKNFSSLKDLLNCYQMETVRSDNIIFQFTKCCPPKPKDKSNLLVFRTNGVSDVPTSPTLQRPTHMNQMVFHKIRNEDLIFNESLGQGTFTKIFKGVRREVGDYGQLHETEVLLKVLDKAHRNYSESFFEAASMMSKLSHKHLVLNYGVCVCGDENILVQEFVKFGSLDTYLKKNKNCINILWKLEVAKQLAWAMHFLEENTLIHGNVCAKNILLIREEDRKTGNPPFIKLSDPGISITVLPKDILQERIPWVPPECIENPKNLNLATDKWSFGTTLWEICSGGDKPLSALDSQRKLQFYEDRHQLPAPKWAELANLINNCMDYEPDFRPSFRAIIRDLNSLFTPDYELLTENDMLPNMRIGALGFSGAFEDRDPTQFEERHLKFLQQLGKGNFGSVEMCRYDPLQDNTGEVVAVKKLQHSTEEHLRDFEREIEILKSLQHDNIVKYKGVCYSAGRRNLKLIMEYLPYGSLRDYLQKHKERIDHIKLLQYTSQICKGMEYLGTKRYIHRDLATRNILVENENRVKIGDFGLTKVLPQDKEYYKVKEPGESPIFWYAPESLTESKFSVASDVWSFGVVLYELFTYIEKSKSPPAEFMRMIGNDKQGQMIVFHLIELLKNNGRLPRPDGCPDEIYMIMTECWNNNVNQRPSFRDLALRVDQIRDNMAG
How it was run: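 pKi values derive from pIC50 via Cheng-Prusoff, with IC50 from a 4-parameter fit of percent-inhibition TR-FRET data using Tb-anti-pSTAT1 (pTyr701) detection. Compound, GST-JAK2 and GFP-STAT1 substrate were pre-incubated 1 h, then ATP started a 1 h ambient reaction (HEPES pH 7.5, 10 mM MgCl2, 1% DMSO).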

Tyk2 = target: T3, Tyk2 (Homo sapiens, UniProt P29597); assay: Biochemical Tyk2 kinase assay (LanthaScreen); conditions: for Ki: read-out: Tyk 2 (pKi) (converted)
T3 construct: GST; purchased Life Technologies
T3 sequence (P29597 whole entry): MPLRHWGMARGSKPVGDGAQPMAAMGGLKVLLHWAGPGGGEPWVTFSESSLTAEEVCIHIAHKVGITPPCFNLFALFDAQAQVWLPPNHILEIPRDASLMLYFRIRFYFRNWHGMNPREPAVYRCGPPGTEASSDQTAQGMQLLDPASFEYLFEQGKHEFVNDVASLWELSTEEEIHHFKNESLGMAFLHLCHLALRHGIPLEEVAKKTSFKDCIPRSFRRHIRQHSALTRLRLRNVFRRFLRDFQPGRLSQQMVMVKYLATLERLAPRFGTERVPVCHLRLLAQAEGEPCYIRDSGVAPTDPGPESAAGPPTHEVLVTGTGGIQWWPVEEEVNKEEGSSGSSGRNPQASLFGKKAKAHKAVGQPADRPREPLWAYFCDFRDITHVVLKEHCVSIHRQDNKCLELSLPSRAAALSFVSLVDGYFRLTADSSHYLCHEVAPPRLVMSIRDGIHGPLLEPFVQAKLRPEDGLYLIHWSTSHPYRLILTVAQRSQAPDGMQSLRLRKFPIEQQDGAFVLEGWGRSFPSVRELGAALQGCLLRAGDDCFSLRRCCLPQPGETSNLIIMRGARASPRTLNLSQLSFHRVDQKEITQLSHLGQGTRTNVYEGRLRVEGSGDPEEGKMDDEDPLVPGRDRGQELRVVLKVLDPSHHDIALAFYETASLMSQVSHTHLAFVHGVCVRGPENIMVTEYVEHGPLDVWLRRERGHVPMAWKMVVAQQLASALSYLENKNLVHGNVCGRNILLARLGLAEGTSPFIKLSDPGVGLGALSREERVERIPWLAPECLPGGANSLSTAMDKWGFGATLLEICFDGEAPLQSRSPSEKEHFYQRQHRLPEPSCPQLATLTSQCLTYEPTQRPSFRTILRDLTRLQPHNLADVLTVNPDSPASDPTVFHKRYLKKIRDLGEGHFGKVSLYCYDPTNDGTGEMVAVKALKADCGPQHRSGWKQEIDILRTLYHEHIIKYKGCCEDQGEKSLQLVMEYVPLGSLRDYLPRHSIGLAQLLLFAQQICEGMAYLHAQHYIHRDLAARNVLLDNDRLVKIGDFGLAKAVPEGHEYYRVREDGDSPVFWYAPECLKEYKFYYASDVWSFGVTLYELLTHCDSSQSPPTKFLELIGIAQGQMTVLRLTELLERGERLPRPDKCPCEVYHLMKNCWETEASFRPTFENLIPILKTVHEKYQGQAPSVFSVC
How it was run: as §1

[1] = test system: IL-2 stimulated pSTAT5 in Tall-1 T cells; assay: Cellular JAK3 potency assay: inhibition of IL-2 stimulated pSTAT5 in Tall-1 T cells; assay type: cell-based, human; conditions: for Tall-1 (pIC50): IL-2 stimulated pSTAT5 in Tall-1 T cells; for IC50: Homo sapiens, TALL-1, IL-2 stimulated pSTAT5 in Tall-1 T cells, read-out: Tall-1 (pIC50) (converted)
How it was run: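 Tall-1 human T cells were preincubated with compound for 1 h at 37° C, then stimulated with IL-2 (300 ng/ml final) for 30 min. STAT5 phosphorylation in lysates was read by AlphaLisa bead emission, and IC50 from inhibition curves is given as pIC50 (mean±SD).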

JAK3 = target: T4, JAK3 (Homo sapiens, UniProt P52333); assay: Biochemical JAK3 kinase assay (LanthaScreen); design: GST; purchased Life Technologies; conditions: for JAK3 (pKi)-JAK1 (pKi): selectivity: difference of pKi JAK3 and pKi JAK1; for Ki: read-out: JAK 3 (pKi) (converted)
T4 sequence (P52333 1-1124): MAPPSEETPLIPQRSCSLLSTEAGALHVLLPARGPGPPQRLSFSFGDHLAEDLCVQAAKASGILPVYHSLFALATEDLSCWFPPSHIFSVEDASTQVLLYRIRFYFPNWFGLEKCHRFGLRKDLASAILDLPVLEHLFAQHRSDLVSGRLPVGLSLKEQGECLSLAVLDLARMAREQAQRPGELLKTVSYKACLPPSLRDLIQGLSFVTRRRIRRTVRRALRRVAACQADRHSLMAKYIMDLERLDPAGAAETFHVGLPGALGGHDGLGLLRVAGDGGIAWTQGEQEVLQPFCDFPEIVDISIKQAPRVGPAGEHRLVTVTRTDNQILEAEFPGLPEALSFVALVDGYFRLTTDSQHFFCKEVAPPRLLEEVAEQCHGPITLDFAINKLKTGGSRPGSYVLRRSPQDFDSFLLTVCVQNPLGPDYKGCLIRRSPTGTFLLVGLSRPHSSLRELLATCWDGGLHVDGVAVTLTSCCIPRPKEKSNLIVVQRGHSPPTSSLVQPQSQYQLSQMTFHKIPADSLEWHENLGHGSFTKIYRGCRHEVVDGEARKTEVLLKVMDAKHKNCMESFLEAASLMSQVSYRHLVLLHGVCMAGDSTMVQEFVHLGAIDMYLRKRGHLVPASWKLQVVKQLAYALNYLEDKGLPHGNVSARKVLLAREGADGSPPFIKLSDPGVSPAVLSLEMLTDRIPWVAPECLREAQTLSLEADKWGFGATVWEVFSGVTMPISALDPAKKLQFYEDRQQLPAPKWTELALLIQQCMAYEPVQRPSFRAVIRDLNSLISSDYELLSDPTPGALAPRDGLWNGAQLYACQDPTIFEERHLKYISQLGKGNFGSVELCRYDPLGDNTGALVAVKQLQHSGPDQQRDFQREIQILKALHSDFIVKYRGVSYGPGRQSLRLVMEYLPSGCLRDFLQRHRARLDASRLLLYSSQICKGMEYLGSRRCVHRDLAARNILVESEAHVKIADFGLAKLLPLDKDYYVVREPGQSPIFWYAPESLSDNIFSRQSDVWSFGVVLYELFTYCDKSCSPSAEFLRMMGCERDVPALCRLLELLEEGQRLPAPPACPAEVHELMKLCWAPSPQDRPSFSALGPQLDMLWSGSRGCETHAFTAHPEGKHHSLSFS
How it was run: as §1

T1 sequence (P23458 whole entry): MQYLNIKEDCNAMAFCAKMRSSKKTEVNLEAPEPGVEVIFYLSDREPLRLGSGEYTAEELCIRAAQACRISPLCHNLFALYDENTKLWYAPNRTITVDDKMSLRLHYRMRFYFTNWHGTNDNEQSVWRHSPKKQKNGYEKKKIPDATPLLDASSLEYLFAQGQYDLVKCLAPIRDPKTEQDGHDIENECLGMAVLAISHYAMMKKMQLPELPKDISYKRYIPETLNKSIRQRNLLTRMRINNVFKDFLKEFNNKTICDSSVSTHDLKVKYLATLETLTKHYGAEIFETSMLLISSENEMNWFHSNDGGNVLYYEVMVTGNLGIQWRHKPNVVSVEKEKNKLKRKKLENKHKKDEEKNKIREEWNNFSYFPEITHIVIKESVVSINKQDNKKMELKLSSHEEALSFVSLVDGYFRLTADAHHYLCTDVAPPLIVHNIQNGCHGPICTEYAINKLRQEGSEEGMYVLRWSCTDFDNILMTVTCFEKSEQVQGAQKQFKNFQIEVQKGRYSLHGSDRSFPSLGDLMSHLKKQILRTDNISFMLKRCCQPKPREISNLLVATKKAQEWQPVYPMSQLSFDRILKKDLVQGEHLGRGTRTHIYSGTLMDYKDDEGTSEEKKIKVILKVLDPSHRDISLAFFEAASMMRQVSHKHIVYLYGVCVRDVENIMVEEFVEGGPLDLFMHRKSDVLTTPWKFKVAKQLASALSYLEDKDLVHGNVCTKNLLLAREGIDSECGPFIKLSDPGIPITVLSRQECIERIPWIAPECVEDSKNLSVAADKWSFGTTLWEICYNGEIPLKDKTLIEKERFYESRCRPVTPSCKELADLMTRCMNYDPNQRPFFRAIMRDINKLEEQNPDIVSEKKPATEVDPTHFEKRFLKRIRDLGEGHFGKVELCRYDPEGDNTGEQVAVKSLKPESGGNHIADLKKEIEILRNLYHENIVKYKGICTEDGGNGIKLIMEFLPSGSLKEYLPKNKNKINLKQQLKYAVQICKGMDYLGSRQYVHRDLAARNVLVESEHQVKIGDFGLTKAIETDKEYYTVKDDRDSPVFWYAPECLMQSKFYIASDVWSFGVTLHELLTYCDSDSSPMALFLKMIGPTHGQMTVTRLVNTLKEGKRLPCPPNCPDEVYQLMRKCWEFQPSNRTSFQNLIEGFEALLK

| SMILES | JAK 1 (pKi) (JAK1) | JAK 2 (pKi) (JAK2) | Tyk 2 (pKi) (Tyk2) | Tall-1 (pIC50) [1] | JAK 3 (pKi) (JAK3) | JAK3 (pKi)-JAK1 (pKi) (JAK3) | Ki (JAK1) [nM] | Ki (JAK2) [nM] | Ki (Tyk2) [nM] | IC50 [1] [nM] | Ki (JAK3) [nM] |
| --- | --- | --- | --- | --- | --- | --- | --- | --- | --- | --- | --- |
| CCC1(COc2nc(-c3ccc(O)c(Cl)c3)cc3[nH]ncc23)CN(C(=O)/C=C/CN(C)C)C1 [Compound 3-99] | E (a pKi value of 7 or below (Ki of 100 nM or above)) | E (a pKi value of 7 or below (Ki of 100 nM or above)) | E (a pKi value of 7 or below (Ki of 100 nM or above)) | A (a pIC50 value≥7.5 (IC50≤32 nM)) | A (a pKi value≥10 (Ki≤0.1 nM)) | A (a value of 3 or above) |  |  |  |  |  |
| CCC1(COc2nc(-c3ccc(O)c(F)c3)cc3[nH]ncc23)CN(C(=O)/C=C/CN(C)C)C1 [Compound 3-100] | E (a pKi value of 7 or below (Ki of 100 nM or above)) | E (a pKi value of 7 or below (Ki of 100 nM or above)) | E (a pKi value of 7 or below (Ki of 100 nM or above)) | A (a pIC50 value≥7.5 (IC50≤32 nM)) | B (a pKi value between 9 and 10 (Ki between 1 nM and 0.1 nM)) | A (a value of 3 or above) |  |  |  |  |  |
| C=CC(=O)N1CC(CC)(COc2nc(-c3ccc(O)c(F)c3)cc3[nH]ncc23)C1 [Compound 3-101] | E (a pKi value of 7 or below (Ki of 100 nM or above)) | D (a pKi value between 7 and 8 (Ki between 100 nM and 10 nM)) | E (a pKi value of 7 or below (Ki of 100 nM or above)) | A (a pIC50 value≥7.5 (IC50≤32 nM)) | A (a pKi value≥10 (Ki≤0.1 nM)) | A (a value of 3 or above) |  |  |  |  |  |
| CN(C)C/C=C/C(=O)N1CC(C#N)(COc2nc(-c3ccc(O)cc3)cc3[nH]ncc23)C1 [Compound 3-102] |  |  |  |  |  | A (a value of 3 or above) | > 100 | > 100 | > 100 | 31.6 to 200 | 0.1 to 1 |
| C=CC(=O)N1CC(C#N)(COc2nc(-c3ccc(O)cc3)cc3[nH]ncc23)C1 [Compound 3-103] |  |  |  |  |  | A (a value of 3 or above) | > 100 | 10 to 100 | > 100 | < 31.6 | < 0.1 |
| C=CC(=O)N1CC(C#N)(COc2nc(-c3ccc(O)cc3)nc3[nH]ncc23)C1 [Compound 3-104] |  |  |  |  |  | A (a value of 3 or above) | > 100 | > 100 | > 100 | < 31.6 | < 0.1 |
| CN(C)C/C=C/C(=O)N1CC(C#N)(COc2nc(-c3ccc(O)c(F)c3)cc3[nH]ncc23)C1 [Compound 3-106] | E (a pKi value of 7 or below (Ki of 100 nM or above)) | E (a pKi value of 7 or below (Ki of 100 nM or above)) | E (a pKi value of 7 or below (Ki of 100 nM or above)) | B (a pIC50 value between 6.7 (included) and 7.5 (IC50 between 200 nM and 32 nM)) | B (a pKi value between 9 and 10 (Ki between 1 nM and 0.1 nM)) | A (a value of 3 or above) |  |  |  |  |  |
| C=CC(=O)N1CC(C#N)(COc2nc(-c3ccc(O)c(Cl)c3)cc3[nH]ncc23)C1 [Compound 3-107] | E (a pKi value of 7 or below (Ki of 100 nM or above)) | E (a pKi value of 7 or below (Ki of 100 nM or above)) | E (a pKi value of 7 or below (Ki of 100 nM or above)) | A (a pIC50 value≥7.5 (IC50≤32 nM)) | A (a pKi value≥10 (Ki≤0.1 nM)) | A (a value of 3 or above) |  |  |  |  |  |
| C=CC(=O)N1CC(C#N)(COc2nc(-c3ccc(O)c(F)c3)cc3[nH]ncc23)C1 [Compound 3-108] | E (a pKi value of 7 or below (Ki of 100 nM or above)) | D (a pKi value between 7 and 8 (Ki between 100 nM and 10 nM)) | E (a pKi value of 7 or below (Ki of 100 nM or above)) | A (a pIC50 value≥7.5 (IC50≤32 nM)) | A (a pKi value≥10 (Ki≤0.1 nM)) | A (a value of 3 or above) |  |  |  |  |  |
| C=CC(=O)N1CC(C#N)(COc2nc(-c3ccc(O)c(Cl)c3)nc3[nH]ncc23)C1 [Compound 3-109] |  |  |  |  |  | A (a value of 3 or above) | > 100 | > 100 | > 100 | 31.6 to 200 | 0.1 to 1 |
| C=CC(=O)N1CC(C#N)(COc2nc(-c3ccc(O)c(F)c3)nc3[nH]ncc23)C1 [Compound 3-110] |  |  |  |  |  | A (a value of 3 or above) | > 100 | > 100 | > 100 | 31.6 to 200 | 0.1 to 1 |
| C=CC(=O)N1CC(C#N)(COc2cc(-c3ccc(O)c(F)c3)nc3[nH]ncc23)C1 [Compound 3-111] | E (a pKi value of 7 or below (Ki of 100 nM or above)) | E (a pKi value of 7 or below (Ki of 100 nM or above)) | E (a pKi value of 7 or below (Ki of 100 nM or above)) | C (a pIC50 value between 6 and 6.7 (IC50 between 1 μM and 200 nM)) | B (a pKi value between 9 and 10 (Ki between 1 nM and 0.1 nM)) | A (a value of 3 or above) |  |  |  |  |  |
| C=C(CN(C)C)C(=O)N1CC(COc2nc(-c3ccc(O)cc3)nc3[nH]ncc23)C1 [Compound 3-112] |  |  |  |  |  | A (a value of 3 or above) | > 100 | > 100 | > 100 | 31.6 to 200 | 0.1 to 1 |
| C=CC(=O)N1CC(COc2cc(-c3ccc(O)cc3)cc3[nH]ncc23)C1C (stereo not drawn) [Compound 3-114] | E (a pKi value of 7 or below (Ki of 100 nM or above)) | E (a pKi value of 7 or below (Ki of 100 nM or above)) | E (a pKi value of 7 or below (Ki of 100 nM or above)) | A (a pIC50 value≥7.5 (IC50≤32 nM)) | B (a pKi value between 9 and 10 (Ki between 1 nM and 0.1 nM)) | A (a value of 3 or above) |  |  |  |  |  |
| CN1CCC[C@H]1/C=C/C(=O)N1CC(COc2cc(-c3ccc(O)cc3)cc3[nH]ncc23)C1 [Compound 3-115] |  |  |  |  |  | A (a value of 3 or above) | > 100 | 0.1 to 1 | > 100 | 31.6 to 200 | 0.1 to 1 |
| CN(C/C=C/C(=O)N1CC(COc2cc(-c3ccc(O)cc3)cc3[nH]ncc23)C1)C(C)(C)C [Compound 3-116] |  |  |  |  |  | B (a value of 2.3 to 3) | > 100 | 10 to 100 | > 100 | 31.6 to 200 | 0.1 to 1 |
| CN(C/C=C/C(=O)N1CC(COc2cc(-c3ccc(O)cc3)cc3[nH]ncc23)C1)C1CCC1 [Compound 3-117] |  |  |  |  |  | B (a value of 2.3 to 3) | > 100 | 10 to 100 | > 100 | 31.6 to 200 | 0.1 to 1 |
| CC(C)CN(C)C/C=C/C(=O)N1CC(COc2cc(-c3ccc(O)cc3)cc3[nH]ncc23)C1 [Compound 3-118] |  |  |  |  |  | A (a value of 3 or above) | > 100 | > 100 | > 100 | < 31.6 | 0.1 to 1 |
